Reference: patent publication US20260356803A1, “Nicotinamide derivatives” (Board of Regents, The University of Texas System, priority 2024, published 2026)
Where two headings read alike, the source gives them in different places.

How the values were obtained:
[1] = test system: human MPNST cell line S462; experiment: S462 cell viability (CellTiter-Glo, 72 h); type: cell-based; details: for IC50: read-out: IC50
Source text: This similarity, in addition to the scaffold's particular sensitivity to modifications around the pyridinyl ring led us to hypothesize that the activity of compounds 1 and 9 may depend on the concentration of Nam in the media. To test this hypothesis, we analyzed the activity of both compounds in media supplemented with increasing concentrations of Nam. […] Given that Nam inhibited compound activity, we considered Nam concentrations in basal culture conditions (DMEM supplemented with 10% fetal bovine serum or FBS) as compared to physiological levels. Nam levels in human serum are estimated to be in the 4 μM range.^5 In contrast, DMEM alone contains […] of Nam and the concentration in 10% FBS is expected to range between 0.574-1.56 μM.^6 To more closely reflect physiologic levels of Nam, we evaluated the activity of these compounds in cells grown in DMEM lacking Nam (Nam-free DMEM), so that the only exogenous Nam derives from 10% FBS. […] These observations indicate that the potency of these compounds is in the nanomolar range when tested in the presence of physiological levels of Nam.
We thus re-assessed the structure activity relationship of compound 21 analogs in Nam-free DMEM supplemented with or without 100 μM Nam (see appendix below: Synthesis, characterization and activity of micromolar and nanomolar active nicotinamide derivatives). […] Particularly notable, even in Nam-depleted conditions, all active analogs retained the same 3-pyridinyl ring as Nam, reinforcing the relationship between structural resemblance to Nam and compound efficacy.
In 96-well assay plates (Corning #2903), 2,000 cells were plated per well in 100 μL of medium and allowed to adhere overnight. The next day, compounds or Nam suspended in DMSO were dispensed to the assayed wells using a D300e Digital Dispenser (Tecan). All wells were normalized to 0.5% DMSO. 72 hours after incubation at 37 °C in 5% CO2, cell viability was assayed using an ATP-based luminescent viability assay, CellTiter-Glo (Promega #G8462). CellTiter-Glo substrate was mixed 1:1 with phosphate-buffered saline (PBS) supplemented with 1% Triton X-100, and 40 μL of this mixture was added to the assay wells. After the plates were shaken on a microplate shaker for 10 minutes at room temperature, luminescence was recorded using a Synergy 2 Microplate Reader or Cytation 5 plate reader (BioTek). In Prism 9 software (GraphPad), ten-point dose response curves were plotted with baseline-correction to the vehicle control well, and IC50 values were calculated by curve fitting using asymmetric (five parameter), least squares fit.

NAMPT and NMNAT1 = experiment: Cell-free metabolism by NAMPT and NMNAT1; type: biochemical; details: role: substrate, 200 μM compound, NMNAT1, 0.4 mM PRPP, 2.5 mM ATP, 37 °C
Description: (§1) We reasoned that 1 and 9 would likely be metabolized to 1-mononucleotide (1-MN) and 9-mononucleotide (9-MN) by NAMPT and then to 1-adenine dinucleotide (1-AD) and 9-adenine dinucleotide (9-AD) by NMNAT1. Thus, we analyzed extracts from cell-free reactions that co-incubate each compound with NAMPT, NMNAT1, PRPP, and ATP by high-resolution mass spectrometry to identify these putative metabolites based on exact mass. […] To test whether these compound metabolites were also produced in cells, we analyzed metabolic extracts from cells treated with either 1 or 9.
A reaction mixture containing 50 mM Tris pH 8, 0.4 mM PRPP, 2.5 mM ATP, 12 mM MgCl2, 0.02% BSA, 1 μM NAMPT, 100 nM NMNAT1 and 200 μM compound 9 or 1 was incubated at 37 °C. Fifty microliter aliquots were quenched at the indicated time points by adding two volumes of acetonitrile with 0.1% formic acid and vortexing for 15 seconds. After incubation for ten minutes at room temperature, samples were centrifuged at 13,200 rpm for 5 minutes. The supernatants were filtered through 0.2 μm PVDF filters (Sigma #SLGV004SL) and analyzed by LC-MS/TOF. […]
(§2) Data analysis for TOF data was performed using SCIEX MultiQuant software version 3.0.3. For each of the compounds monitored, the theoretical exact m/z was calculated. […]

S462 cells = experiment: Metabolism in S462 cells; type: cell-based, human; details: 500 nM compound
Description: as §1
Prior to the experiment, cells were cultured in low-Nam DMEM for at least 1 passage (3 days) to deplete intracellular Nam. 15,000 cells were plated in a 96-well plate with 100 μL low-Nam media. At appropriate time points, 500 nM 1 or 9, or equal volume of vehicle (DMSO) were added using TECAN. 200 μL of acetonitrile with 0.1% formic acid were added to the assayed wells. For the 0-hour time point, compound or vehicle was added after the addition of acetonitrile and formic acid. […] The supernatants were filtered through 0.2 μm PVDF filters and analyzed by LC-MS/TOF. […]
as §2

[2] = Nam titration experiment, media without added Nam
[3] = S462, commercial DMEM, highest dose tested 50 μM
[4] = addition of 100 μM exogenous Nam

levels of parent compound over time in cells (S462 cells) | Structure (SMILES) | toxicity to S462 ([1]; 10% FBS Nam-free DMEM) | rescue by nicotinamide ([1]; 10% FBS Nam-free DMEM, comparison of vacor, 3-AP, tiazofurin and 9) | IC50 of 9 less than 3-AP ([1]; 10% FBS Nam-free DMEM, versus 3-AP) [fold] | IC50 of 9 less than tiazofurin ([1]; 10% FBS Nam-free DMEM, versus tiazofurin) [fold] | IC50 of 9 less than vacor ([1]; 10% FBS Nam-free DMEM, versus vacor) [fold] | IC50 [1, 2] [µM] | potency increase in Nam-free DMEM ([1]; Nam-free DMEM versus basal medium) [fold] | IC50 ([1]; Nam-free DMEM with 10% FBS) [µM] | IC50 ([1]; Nam-free DMEM, addition of 1.4 μM Nam) [µM] | IC50 ([1]; Nam-free DMEM, addition of 37 μM Nam) [µM] | IC50 [1, 3] [µM] | average increase in IC50 on NMNAT1 knockout ([1]; S462, three independent NMNAT1 sgRNAs) [fold] | IC50 [1, 4] [µM] | IC50 ([1]; addition of 1 mM exogenous Nam) [µM] | levels of parent compound over time (NAMPT and NMNAT1)
time-dependent depletion | O=C(Nc1cccs1)c1cccnc1 [Compound 9, N-(Thiophen-2-yl)nicotinamide] | toxic to S462 | rescued by nicotinamide | 1823 | 477 | 206 | 0.845 | 92 | 0.00917 | 0.0514 | 1.84 | 1.2 | 28.5 | 4.23 | 35.7 | time-dependent decrease
time-dependent depletion | O=C(Nc1cccnc1)c1cccs1 [Compound 1, N-(pyridin-3-yl)thiophene-2-carboxamide] | – | – | – | – | – | 1.96 | – | – | – | – | 1.41 | – | 6.85 | 32.3 | time-dependent decrease
